Assay results taken from PMC6874057, “Synthesis of Chalcone Derivatives: Inducing Apoptosis of HepG2 Cells via Regulating Reactive Oxygen Species and Mitochondrial Pathway” (Frontiers in Pharmacology, 2019).

Columns and labels:
Hela = experiment: MTT cell viability assay, Hela; format: cell-based, human; settings: 48 h, mean ± SE
Procedure: (§1) HeLa, A549, HepG2, HL-60, and WI-38 cell lines were incubated in DMEM solution containing 10% FBS for 48 h. The incubated tumor cells were seeded into 96-well plates (5 × 10^3 cells/well) to make them attach for 12 h. Afterwards, the cells were processed with the various concentrations of the synthetic compounds and 5-FU for 48 h. After removing the cell culture supernatant, 10 µl MTT (5 mg/ml) solution was dripped into the cells to generate a formazan product, which were dissolved by dimethyl sulfoxide (DMSO) 4 h later. Multifunction microplate reader (Bio-Rad Laboratories, Shanghai, China) was adopted to measure the absorbance at the wave length of 490 nm. The IC50 (the lowest drug concentration causing 50% of the tumor cells inhibition) was then calculated using GraphPad Prism Software (version 5.02) and used to indicate the cytotoxic effect of the target compounds on the selected tumor cells.

A549 = experiment: MTT cell viability assay, A549; format: cell-based, human; settings: mean ± SE
Procedure: as §1

HL-60 = experiment: MTT cell viability assay, HL-60; format: cell-based, human; settings: mean ± SE
Procedure: as §1

HepG2 = experiment: MTT cell viability assay, HepG2; format: cell-based, human; settings: mean ± SE
Procedure: as §1

WI-38 = experiment: MTT cell viability assay, normal cell line WI-38; format: cell-based, human; settings: normal cells, mean ± SE
Procedure: as §1

[1] = tested on: adherent tumor cell lines (HepG2, A549 and Hela); experiment: MTT assay, summary over adherent tumor cell lines; format: cell-based; settings: Homo sapiens; span of IC50 over compounds a11-a14 and adherent tumor cell lines; read-out: IC50 range over cell lines
Procedure: as §1

[2] = tested on: mitochondrial membrane potential in HepG2 cells; experiment: Mitochondrial membrane potential by JC-1 probe; format: cell-based, human; settings: CCCP for 20 min, without a14, positive control
Procedure: JC-1 probe was used to detect changes in MMP. Firstly, HepG2 cells (3 × 10^5 cells/well) were seeded into a six-well plate overnight for adherence, and then treated with various concentrations of a14 for 48 h. Next, the cells were treated with JC-1 (2.5 µg/ml) at 37°C for 10 min in the dark and rinsed three times with PBS. Then, the six-well plate was placed under the fluorescence microscope (excitation 480/30× nm, emission 515 nm) to observe the fluorescence color and intensity of JC-1 in the cells. In addition, HepG2 cells (3 × 10^5 cells/well) were inoculated on another six-well plate overnight to allow adherence, and then treated with a14 (50 µM) for 0, 12, 24, 36, and 48 h, adding CCCP (without a14) for 20 min to completely lose the mitochondrial membrane potential. Cells were then incubated with JC-1 (2.5 µg/ml) at 37°C in the dark for 10 min and rinsed with PBS for three times. Fluorescence intensity of residual JC-1 in cells was measured by Beckman Coulter flow cytometer (FITC, 525/40BP). The data obtained was analyzed by CytExpert 2.0 software imbedded in the flow cytometry.

| Compound | IC50 (Hela) | IC50 (A549; 48 h) | IC50 (HL-60; 48 h) | IC50 (HepG2; 48 h) | IC50 (Hela; Homo sapiens, HeLa) | IC50 (A549; Homo sapiens, A549, 48 h) | IC50 (HL-60; Homo sapiens, HL-60, 48 h) | IC50 (HepG2; Homo sapiens, HepG2, 48 h) | IC50 [1] | IC50 (WI-38; 48 h) | IC50 (WI-38; Homo sapiens, WI-38, 48 h) | JC-1 (FITC), right of the gate line (green fluorescence) [2] |
| --- | --- | --- | --- | --- | --- | --- | --- | --- | --- | --- | --- | --- |
| O=c1[nH]cc(F)c(=O)[nH]1 [5-FU, reference compound] | 35.2 ± 1.39 µM | 53.7 ± 1.16 µM | 165 ± 4.74 µM | 42.9 ± 2.88 µM |  |  |  |  |  | 62.8 ± 2.03 µM |  |  |
| NC(=O)c1cc(C(=O)/C=C/c2ccc(F)cc2)ccc1O [a1] |  |  |  |  | 125 ± 6.92 µM | 107 ± 2.14 µM | 131 ± 5.38 µM | 135 ± 9.79 µM |  |  | 229 ± 7.38 µM |  |
| NC(=O)c1cc(C(=O)/C=C/c2cccc(Cl)c2)ccc1O [a2] |  |  |  |  | 98.9 ± 2.9 µM | 82.5 ± 3.61 µM | 135 ± 2.45 µM | 77 ± 1.34 µM |  |  | 122 ± 2.33 µM |  |
| NC(=O)c1cc(C(=O)/C=C/c2cccc(Br)c2)ccc1O [a3] |  |  |  |  | 77.6 ± 4.74 µM | 59.6 ± 5.23 µM | 141 ± 5.19 µM | 71.2 ± 4.63 µM |  |  | 126.2 ± 0.46 µM |  |
| NC(=O)c1cc(C(=O)/C=C/c2ccccc2)ccc1O [a5] |  |  |  |  | 82.2 ± 4.8 µM | 57.2 ± 1.53 µM | 108 ± 3.5 µM | 68.1 ± 5.51 µM |  |  | 127 ± 6.6 µM |  |
| Cc1ccccc1/C=C/C(=O)c1ccc(O)c(C(N)=O)c1 [a6] |  |  |  |  | 74.8 ± 2.33 µM | 51.3 ± 2.11 µM | 213 ± 2.98 µM | 75.4 ± 3.27 µM |  |  | 109 ± 1.49 µM |  |
| carbonyl cyanide m-chlorophenyl hydrazine [CCCP, reference compound] |  |  |  |  |  |  |  |  |  |  |  | 99.98% |

Further compounds by falling IC50 (Hela; Homo sapiens, HeLa), results first:

| IC50 (Hela) | IC50 (A549; 48 h) | IC50 (HL-60; 48 h) | IC50 (HepG2; 48 h) | IC50 (Hela; Homo sapiens, HeLa) | IC50 (A549; Homo sapiens, A549, 48 h) | IC50 (HL-60; Homo sapiens, HL-60, 48 h) | IC50 (HepG2; Homo sapiens, HepG2, 48 h) | IC50 [1] | Compound | IC50 (WI-38; 48 h) | IC50 (WI-38; Homo sapiens, WI-38, 48 h) | JC-1 (FITC), right of the gate line (green fluorescence) [2] |
| --- | --- | --- | --- | --- | --- | --- | --- | --- | --- | --- | --- | --- |
|  |  |  |  | 65.9 ± 7.8 µM | 48.2 ± 2.25 µM | 110 ± 2.04 µM | 46.41 ± 0.05 µM |  | NC(=O)c1cc(C(=O)/C=C/c2ccc(Br)cc2)ccc1O [a4] |  | 100 ± 11.5 µM |  |
|  |  |  |  | 65.1 ± 1.34 µM | 57.6 ± 1.42 µM | 210 ± 3.03 µM | 80.3 ± 1.87 µM |  | COc1ccccc1/C=C/C(=O)c1ccc(O)c(C(N)=O)c1 [a9] |  | 98.5 ± 4.91 µM |  |
|  |  |  |  | 54.4 ± 1.11 µM | 45.6 ± 1.05 µM | 131 ± 4.64 µM | 70.8 ± 4.03 µM |  | COc1cccc(/C=C/C(=O)c2ccc(O)c(C(N)=O)c2)c1 [a10] |  | 93.3 ± 3.13 µM |  |
|  |  |  |  | 53.6 ± 0.67 µM | 65 ± 2.35 µM | 301 ± 3.53 µM | 57.4 ± 3.07 µM |  | Cc1ccc(/C=C/C(=O)c2ccc(O)c(C(N)=O)c2)cc1 [a8] |  | 147 ± 13.2 µM |  |
|  |  |  |  | 48.2 ± 0.56 µM | 35.8 ± 1.02 µM | 245 ± 5.54 µM | 44.7 ± 1.56 µM | 23.3 to 54.4 µM | COc1ccc(/C=C/C(=O)c2ccc(O)c(C(N)=O)c2)cc1 [a11] |  | 89.5 ± 6.61 µM |  |
|  |  |  |  | 40.7 ± 1.33 µM | 40.7 ± 3.68 µM | 111 ± 1.57 µM | 55.6 ± 3.23 µM |  | Cc1cccc(/C=C/C(=O)c2ccc(O)c(C(N)=O)c2)c1 [a7] |  | 81.7 ± 1.13 µM |  |
|  |  |  |  | 35.3 ± 2.13 µM | 41.2 ± 2.15 µM | 160 ± 3.59 µM | 54.37 ± 0.52 µM | 23.3 to 54.4 µM | COc1ccc(/C=C/C(=O)c2ccc(O)c(C(N)=O)c2)c(OC)c1 [a12] |  | 123 ± 2.45 µM |  |
|  |  |  |  | 31.8 ± 1.62 µM | 37.6 ± 1.11 µM | 134 ± 4.44 µM | 50.3 ± 4.03 µM | 23.3 to 54.4 µM | COc1ccc(/C=C/C(=O)c2ccc(O)c(C(N)=O)c2)cc1OC [a13] |  | 118 ± 3.53 µM |  |
